# Measurements reported in ChEMBL document CHEMBL1138453, “Synthesis and SAR of 1,2,3,4-tetrahydroisoquinolin-1-ones as novel G-protein-coupled receptor 40 (GPR40) antagonists” (Bioorg Med Chem Lett, 2009).
# How the values were obtained:
# [1] = tested on: Liver microsomes; test: Metabolic stability in rat liver microsomes assessed as clearance; format: ADME, Microsome
# [2] = biological target: Free fatty acid receptor 1 (Homo sapiens, UniProt O14842); test: Antagonist activity at human GPR40 expressed HEK293 cells assessed as effect on intracellular calcium concentration by FLIPR assay; format: functional, cell-based
# Sequence of Free fatty acid receptor 1 (O14842 whole entry): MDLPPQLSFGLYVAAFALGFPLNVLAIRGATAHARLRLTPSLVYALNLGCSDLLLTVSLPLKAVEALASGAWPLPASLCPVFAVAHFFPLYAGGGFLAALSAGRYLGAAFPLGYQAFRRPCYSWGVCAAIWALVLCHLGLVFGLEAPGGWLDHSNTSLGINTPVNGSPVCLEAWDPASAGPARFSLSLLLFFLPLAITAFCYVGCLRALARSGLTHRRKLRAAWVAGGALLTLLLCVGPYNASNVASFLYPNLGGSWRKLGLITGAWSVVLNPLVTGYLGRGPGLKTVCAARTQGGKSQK
# [3] = tested on: Rattus norvegicus; test: Clearance in iv dosed Sprague-Dawley rat; format: ADME, organism-based; settings: in vivo
# [4] = Drug level in bile of iv dosed bile duct cannulated rat; format: ADME, organism-based; settings: read-out: Drug uptake
# [5] = tested on: Rattus norvegicus; test: Clearance in iv dosed bile duct cannulated rat; format: ADME, organism-based; settings: in vivo
# [6] = tested on: Liver microsomes; test: (§1) Metabolic stability in human liver microsomes assessed as clearance; format: ADME, Microsome; settings: microsomes
# [7] = tested on: Canis familiaris; test: Clearance in iv dosed dog; format: ADME, organism-based, Canis lupus familiaris; settings: in vivo
# [8] = Metabolic stability in dog liver microsomes assessed as clearance; format: ADME, Canis lupus familiaris, Microsome
# [9] = Permeability from basolateral to apical side of the human Caco-2 membrane; format: ADME, cell-based; settings: read-out: permeability
# [10] = Volume of distribution in iv dosed Sprague-Dawley rat; format: ADME, organism-based; settings: in vivo
# [11] = Half life in iv dosed Sprague-Dawley rat; format: ADME, organism-based; settings: in vivo
# [12] = as §1; format: ADME, Microsome; settings: liver microsomes
# [13] = Permeability from apical to basolateral side of the human Caco-2 membrane; format: ADME, cell-based; settings: read-out: permeability
SMILES,clearance [1] [µL/min/mg],IC50 [2] [nM],clearance [6] [µL/min/mg],also measured
CC[C@H](C)CN1C(=O)c2ccccc2[C@@H](C(=O)O)[C@@H]1c1ccc(Cl)c(Cl)c1,< 14,13,–,–
CCCN1C(=O)c2ccccc2[C@@H](C(=O)O)[C@@H]1c1ccc(Cl)c(Cl)c1,< 14,89,–,–
CCCN1C(=O)c2ccccc2[C@@H](C(=O)O)[C@@H]1c1cnc(O[C@H]2CC[C@@H](C)CC2)nc1,–,–,–,dose excreted [4]: 69.9%; clearance [5]: 136 mL/min/kg
CCN1C(=O)c2ccccc2[C@@H](C(=O)O)[C@@H]1c1ccc(Oc2ccccc2)cc1,97,12,< 9,dose excreted [4]: 13.9%; clearance [5]: 111 mL/min/kg
CCCN1C(=O)c2ccccc2[C@@H](C(=O)O)[C@@H]1c1ccc(Oc2cc(C)cc(C)c2)cc1,46,2,21,–
CCCN1C(=O)c2ccccc2[C@@H](C(=O)O)[C@@H]1c1ccc(Oc2ccc(C)c(C)c2)cc1,< 14,3,< 8,–
CCCN1C(=O)c2ccccc2[C@@H](C(=O)O)[C@@H]1c1ccc(Oc2cc(Cl)cc(Cl)c2)cc1,–,–,–,clearance [7]: 7.4 mL/min/kg; microsomal CLint [8]: 2.99 µL/min/mg; dose excreted [4]: 64.6%; clearance [5]: 32.7 mL/min/kg
CN1C(=O)c2ccccc2[C@@H](C(=O)O)[C@@H]1c1ccc(Oc2ccccc2)cc1,27,156,–,–
CCC(CC)CN1C(=O)c2ccccc2[C@@H](C(=O)O)[C@@H]1c1nc2ccccc2s1,< 18,10,–,–
CCCN1C(=O)c2ccccc2[C@@H](C(=O)O)[C@@H]1c1ccc(OC)cc1,< 14,2100,< 8,–
CC[C@H](C)CN1C(=O)c2ccccc2[C@@H](C(=O)O)[C@@H]1c1cc2ccccc2o1,< 14.1,20,–,Papp B→A [9]: 18.7 ×10⁻⁶ cm/s; clearance [3]: 4.3 mL/min/kg; Vd [10]: 1.1 L/kg; half-life [11]: 5.4 h; microsomal CLint [12]: < 8 µL/min/mg; Papp A→B [13]: 12 ×10⁻⁶ cm/s
CCCN1C(=O)c2ccccc2[C@@H](C(=O)O)[C@@H]1c1ccc(OCc2ccccc2)cc1,< 16,96,< 8,clearance [3]: 82.8 mL/min/kg
CCCN1C(=O)c2ccccc2[C@@H](C(=O)O)[C@@H]1c1ccc(Oc2ccc(C(F)(F)F)cn2)cc1,< 14,29,< 8,–

# The next lines start with results.
clearance [1] [µL/min/mg],IC50 [2] [nM],clearance [6] [µL/min/mg],SMILES,also measured
18,119,–,CCCN1C(=O)c2ccccc2[C@@H](C(=O)O)[C@@H]1c1cc2ccccc2o1,clearance [3]: 3 mL/min/kg
27,10,–,CCC(CC)CN1C(=O)c2ccccc2[C@@H](C(=O)O)[C@@H]1c1ccc(Cl)c(Cl)c1,–
< 14,228,–,CCCN1C(=O)c2ccccc2[C@@H](C(=O)O)[C@@H]1c1cccc(Cl)c1,clearance [3]: 2.96 mL/min/kg
274,10,< 12,CCCN1C(=O)c2ccccc2[C@@H](C(=O)O)[C@@H]1c1ccc(O[C@H]2CC[C@@H](C)CC2)cc1,dose excreted [4]: 22.9%; clearance [5]: 84.5 mL/min/kg
120,4,–,O=C(O)[C@@H]1c2ccccc2C(=O)N(CC2CC2)[C@H]1c1ccc(Oc2ccccc2)cc1,–
